Values quoted from earlier work in article PMC13041344 (Antimicrobial Agents and Chemotherapy, 2026).

Conditions: humans; 2 g q8h as a 3-h infusion

In the case of C[C@@H](O)[C@H]1C(=O)N2C(C(=O)O)=C(S[C@@H]3CN[C@H](C(=O)N(C)C)C3)[C@H](C)[C@H]12 [MEM, meropenem], the Cmax is listed as 46000 ng/mL.
